In patent US20170182106A1, “COMPOSITION INCLUDING KIRENOL OR SIEGESBECKIA HERBA EXTRACT FOR MUSCLE FUNCTION IMPROVEMENT OR EXERCISE ABILITY ENHANCEMENT” (University-Industry Foundation, Yonsei University, priority 2014, published 2017):

How the values were obtained:
Assay type in all cases: cell-based
atrogin-1 = atrogin-1 mRNA expression in differentiated L6 cells (RT-PCR); conditions: kirenol 10, 40 μM, FIG. 6
PGC-1α = PGC-1α protein expression in L6 muscle cells (western blotting); conditions: 10 μM kirenol, 24 hours, vs 0.01% DMSO control, FIG. 11
Method: L6 myoblasts (myoblast; American Type Culture Collection, Manassas, Va., USA), which are muscle cells, were incubated in DMEM (Hyclone) containing 10% fetal bovine serum (FBS; Hyclone, Logan, Utah, USA), 100 U/mL penicillin, and 100 μg/mL streptomycin (Gibco, Grand Island, N.Y., USA). The L6 cells were treated with the Siegesbeckia glabrescens Mak. ethanol extract prepared according to Example 1-1, Siegesbeckia pubescens Mak. ethanol extract prepared according to Example 2-1, or Siegesbeckia orientalis L. ethanol extract prepared according to Example 3-1, each at a concentration of 10 ppm. Also, L6 cells were treated with 10 μM kirenol prepared according to Example 4. In this case, a group treated with 0.01% DMSO instead of being treated with a sample was prepared as a control group. 24 hours later, the L6 cells were dissolved in a RIPA (ELPIS-Biotech, Daejeon, Korea) buffer solution containing a proteinase inhibitor cocktail (Sigma-Aldrich, St. Louis, Mo., USA). […]
(§1) ECL western blotting detection reagents (Amersham, Tokyo, Japan) were used to color PGC-1α protein bands, and the G:BOX EF imaging system (Syngene, Cambridge, UK) was used to measure the densities of the colored protein bands. In this case, relative densities of protein bands of experimental groups treated with a sample were determined as a percentage (%), with the density of the control protein band being 100%. […]

MuRF1 = MuRF1 mRNA expression in differentiated L6 cells (RT-PCR); conditions: kirenol 10, 40 μM, FIG. 6
MyoD = MyoD mRNA expression in TNF-α-treated differentiated L6 cells (RT-PCR); conditions: TNF-α 24 hours, kirenol 10, 40 μM, FIG. 4
Method: (§2) L6 myoblasts (American Type Culture Collection, Manassas, Va., USA), which are muscle cells, were incubated in DMEM (10% FBS, 100 U/mL penicillin, 100 μg/mL streptomycin). When the cell density reached about 80-85%, the cell culture medium was replaced with a DMEM growth medium supplemented with 2% FBS. The experiment was initiated after 6 days of differentiation. To induce muscle reduction, the differentiated L6 cells were treated with TNF-α for 24 hours and then with the ethanol extract of Siegesbeckia orientalis L. (10, 40 ppm) prepared according to Example 3-1 and kirenol (10, 40 μM) prepared according to Example 4. RT-PCR was carried out to measure mRNA expression levels of myogenin and MyoD, which are muscle differentiation regulatory factors. TRIzol Reagent (Invitrogen, Carlsbad, Calif., USA) was used for harvesting total RNA from the differentiated cells, and the total RNA was reverse transcribed. The RT-PCR analysis was carried out as follows: First, the RNA was reverse transcribed for cDNA synthesis by using a reverse transcriptase. RT-PCR was conducted using specific primers as listed below, and β-actin was used to indicate that a constant amount of mRNA was loaded into each lane.

myogenin = myogenin mRNA expression in TNF-α-treated differentiated L6 cells (RT-PCR); conditions: TNF-α 24 hours, kirenol 10, 40 μM, FIG. 4
Method: as §2

p-mTOR = p-mTOR protein expression in L6 muscle cells (western blotting); conditions: 10 μM kirenol, 24 hours, vs 0.01% DMSO control, FIG. 1
Method: L6 myoblasts (American Type Culture Collection, Manassas, Va., USA), which are muscle cells, were incubated in Dulbecco's Modified Eagle's Medium (DMEM; Hyclone) containing 10% fetal bovine serum (FBS; Hyclone, Logan, Utah, USA), 100 U/mL penicillin, and 100 μg/mL streptomycin (Gibco, Grand Island, N.Y., USA). The L6 cells were treated with the Siegesbeckia glabrescens Mak. ethanol extract prepared according to the above Example 1-1, the Siegesbeckia pubescens Mak. ethanol extract prepared according to Example 2-1, or the Siegesbeckia orientalis L. ethanol extract prepared according to Example 3-1, each at a concentration of 10 ppm. Also, L6 cells were treated with 10 μM kirenol prepared according to Example 4. In this case, a group treated with 0.01% DMSO instead of being treated with a sample was prepared as a control group. […]
as §1, with “p-mTOR” for “PGC-1α”

C[C@@]1(CO)C[C@@H](O)C[C@@]2(C)C3CC[C@](C)([C@@H](O)CO)C=C3CC[C@H]12 (stereo in doubt) [kirenol, (1R,3S,4aS,4bS,7S,10aS)-1,2,3,4,4a,4b,5,6,7,9,10,10a-Dodecahydro-3-hydroxy-7-[(R)-1,2-dihydroxyethyl]-1,4a,7-trimethylphenanthrene-1-methanol]
mRNA expression level of atrogin-1 (atrogin-1): reduces
protein expression level of PGC-1α (PGC-1α): increased
mRNA expression level of MuRF1 (MuRF1): reduces
mRNA expression level of MyoD (MyoD): increases
mRNA expression level of myogenin (myogenin): increases
protein expression level of p-mTOR (p-mTOR): increased
